“And” between values parts separate entries of the source, which are not always exact repeats. Equal entries are not always repeated. Marks after values point to notes of the source that are not given here.
How the values were obtained:
[1] = system: enamel substratum of the polymicrobial biofilm caries model; test: Enamel subsurface demineralization in the polymicrobial biofilm caries model (transverse microradiography); set-up: species or system human; settings: for integrated mineral loss ΔZd / lesion depth LD: twice daily 10 min pulses, mean ± SD
Procedure: (§1) To model supragingival plaque six representative oral bacterial species, Streptococcus sanguinis (NCTC 7863), Streptococcus mutans Ingbritt, Actinomyces naeslundii (NCTC 10301), Veillonella parvula (ATCC 17745), Lactobacillus casei (NCDO 161) and Fusobacterium nucleatum (ATCC 10953) (Table 5) were cultured as a polymicrobial biofilm on a human enamel substratum in a constant-depth film fermenter (CDFF; Cardiff University, UK). The CDFF was housed in a 37° C. incubator under anaerobic conditions which were maintained by a constant flow of 5% CO2 in N2 at 1 L/h. The CDFF contained 15 removable polytetrafluoroethylene (PTFE) pans on a circular platform that was rotated at a constant speed of three rpm. The biofilms were grown on three enamel blocks (see below) in each PTFE pan using an artificial saliva medium (ASM, 2.5 g/L mucin type II (porcine, gastric, Sigma), 2.0 g/L bacteriological peptone (Oxoid), 2.0 g/L tryptone (Oxoid), 1.0 g/L yeast extract (Oxoid), 0.35 g/L NaCl, 0.2 g/L KCl, 0.2 mg/L vitamin K, 1 mg/L haemin and 0.1 g/L cysteine hydrochloride) at a constant flow rate of 30 mL/h. Prior to inoculation, the CDFF pan surfaces were conditioned for 24 h with ASM at a flow rate of 10 mL/h (McBain et al (2003) J Appl Microbiol. 94(4):655-66). In order to mimic in vivo bacterial growth conditions in the oral cavity with dietary sugar intake and to provide a high cariogenic challenge, a 1% (w/v) sucrose solution in ASM was pumped into the CDFF four times a day at four hourly intervals with a flow rate of 30 mL/h for 10 min.
(§2) Three treatments were applied to the polymicrobial biofilms: 290 ppm fluoride with 220 ppm fluoride as SnF2 and 70 ppm fluoride as NaF (referred to as SnF2), 2% CPP-ACP and 2% CPP-ACP-SnF2. These treatments were compared with the control in which the test solution was replaced with ASM. Each treatment was applied using two 10 min pulses of the test solution in ASM with a flow rate of 30 mL/h. The first pulse started 30 min prior to the first sucrose pulse of the morning and the second started 3 h 30 min after the final sucrose pulse of the day.
(§3) On day 6, 12 and 19 after inoculation four pans were removed aseptically from the CDFF and replaced with blank sterile pans. Enamel blocks from the pans were removed for bacterial enumeration and transverse microradiography.
Three hundred and sixty extracted human third molars were obtained under University of Melbourne ethics approval (HREC #1237616) and sterilized by exposure to 4.1 kGy of gamma radiation. Enamel blocks were cut from the teeth with approximately 6×3×3 mm dimensions using a water-cooled diamond blade saw (Minitom, Struers) and polished using a RotoPol/RotoForce lapping instrument with 1200, 2400, 4000 grit lapping papers (Struers) and 3 and 1 μm diamond polishing pastes (Struers). The blocks were positioned in custom made CDFF pans at a depth of 100 μm and sealed in place with yellow sticky wax (Kemdent) and sterilized by exposure to 4.1 kGy of gamma radiation.
Transverse microradiography was carried out essentially as described previously [Shen et al 2011]. […] The lesion depth (μm) was determined as the distance to the point at which the mineral content reaches 95% of the sound enamel value. The integrated mineral loss (IML), represented as ΔZd, was calculated by trapezoidal integration as the area between the sound-enamel densitometric profile and that of the demineralized enamel densitometric profile in vol % min·μm.

[2] = system: Streptococcus mutans Ingbritt; test: Six species polymicrobial biofilm in constant-depth film fermenter, species composition: S. mutans; format: cell-based; settings: 19 days; mean ± standard deviation; n = 5-21
Procedure: as §1
(§4) Three treatments were applied to the polymicrobial biofilms: 290 ppm fluoride with 220 ppm fluoride as SnF2 and 70 ppm fluoride as NaF (referred to as SnF2), 2% CPP-ACP and 2% CPP-ACP-SnF2. […]
(§5) For each timepoint, DNA was extracted separately from 8-9 enamel blocks using PowerLyzer® PowerSoil® DNA Isolation Kits (MoBio Laboratories) following the manufacturers “Vacuum Protocol” with a Precellys® bead homogeniser (Bertin Technologies). Samples were quantified using a Qubit™ dsDNA HS assay kit (Life Technologies) before being stored at −80° C. […]

[3] = system: polymicrobial biofilm; test: Biofilm ion analyses (calcium, phosphorous, tin; ICP-MS)
Procedure: To model supragingival plaque six representative oral bacterial species, Streptococcus sanguinis (NCTC 7863), Streptococcus mutans Ingbritt, Actinomyces naeslundii (NCTC 10301), Veillonella parvula (ATCC 17745), Lactobacillus casei (NCDO 161) and Fusobacterium nucleatum (ATCC 10953) (Table 5) were cultured as a polymicrobial biofilm on a human enamel substratum in a constant-depth film fermenter (CDFF; Cardiff University, UK). […] The CDFF contained 15 removable polytetrafluoroethylene (PTFE) pans on a circular platform that was rotated at a constant speed of three rpm. […] These treatments were compared with the control in which the test solution was replaced with ASM. […] The first pulse started 30 min prior to the first sucrose pulse of the morning and the second started 3 h 30 min after the final sucrose pulse of the day. Calcium, phosphorous and tin content of polymicrobial biofilm samples were determined by inductively-coupled mass spectrometry essentially as described previously [[…] et al 2005].

[4] = system: Lactobacillus casei (NCDO 161); test: Six species polymicrobial biofilm in constant-depth film fermenter, species composition: L. casei; format: cell-based; settings: 19 days; mean ± standard deviation; n = 5-21
Procedure: as §1, §2, §3
(§6) Planktonic and loosely attached bacterial cells were firstly removed from the enamel blocks by light washing with 100 μL ASM. […]
as §5

[5] = system: Fusobacterium nucleatum (ATCC 10953); test: Six species polymicrobial biofilm in constant-depth film fermenter, species composition: F. nucleatum; format: cell-based
Procedure: as §1, §2, §3
Planktonic and loosely attached bacterial cells were firstly removed from the enamel blocks by light washing with 100 μL ASM. To harvest the biofilm cells on each block, the surface was scraped with a sterile scraper with 1 mL of ASM. The biofilm bacterial cells were sedimented by centrifugation (10,000 g, 10 min), the supernatant carefully decanted and the cell pellets stored at −80° C. until required for DNA extraction. The enamel blocks were then used for sectioning and microradiography.
For each timepoint, DNA was extracted separately from 8-9 enamel blocks using PowerLyzer® PowerSoil® DNA Isolation Kits (MoBio Laboratories) following the manufacturers “Vacuum Protocol” with a Precellys® bead homogeniser (Bertin Technologies). Samples were quantified using a Qubit™ dsDNA HS assay kit (Life Technologies) before being stored at −80° C.
The Ion Amplicon Library Preparation Fusion Method (Thermo Fisher Scientific), was adapted for amplification of the V4 region of the 16S rRNA gene. […]

[6] = system: Veillonella parvula (ATCC 17745); test: Six species polymicrobial biofilm in constant-depth film fermenter, species composition: V. parvula; format: cell-based; settings: 19 days; mean ± standard deviation; n = 5-21
Procedure: as §1, §4, §5

[7] = system: Actinomyces naeslundii (NCTC 10301); test: Six species polymicrobial biofilm in constant-depth film fermenter, species composition: A. naeslundii; format: cell-based
Procedure: as §1, §4, §5

[8] = system: Streptococcus sanguinis (NCTC 7863); test: Six species polymicrobial biofilm in constant-depth film fermenter, species composition: S. sanguinis; format: cell-based
Procedure: as §1, §2, §3, §6, §5

[9] = 19 days, mean ± standard deviation, n = 5-21

[F][Sn][F] [SnF2, stannous fluoride, reference compound]
integrated mineral loss ΔZd ([1]; Day 6): 636.7 ± 129.4 vol % min · μm | lesion depth LD ([1]; Day 6): 17.6 ± 1.2^c μm | integrated mineral loss ΔZd ([1]; Day 12): 1352.1 ± 147.3^bde vol % min · μm | lesion depth LD ([1]; Day 12): 37.1 ± 5.3^bdf μm | integrated mineral loss ΔZd ([1]; Day 19): 2096.3 ± 66.7^ae vol % min · μm | lesion depth LD ([1]; Day 19): 46.1 ± 4.7^be μm | rate of demineralization ([1]; between day 6 and day 19): 112.1 vol % min·μm/day | reduction in rate of demineralization relative to control ([1]; between day 6 and day 19, twice daily exposure): 50.2% and 50% | S. mutans as a percentage of total bacteria in the biofilm [2]: 59.82 ± 4.59^a % | increase in calcium in the biofilm relative to the control ([3]; ICP-MS): two-fold | increase in phosphorous in the biofilm relative to the control ([3]; ICP-MS): two-fold | peak stannous concentration in the biofilm ([3]; ICP-MS): 1.0 nmol/mg biofilm wet weight | Sn accumulated in the polymicrobial biofilms, concentration ([3]; during SnF2 treatment): ≤ 119 ppm | L. casei as a percentage of total bacteria in the biofilm [4]: 10.67 ± 6.92^cd % | F. nucleatum as a percentage of total bacteria in the biofilm [5, 9]: 0.02 ± 0.01^cd % | change in abundance of F. nucleatum after treatment relative to the control (increase) ([5]; day 19, FIG. 5B): −2% | V. parvula as a percentage of total bacteria in the biofilm [6]: 6.50 ± 1.48^b % | A. naeslundii as a percentage of total bacteria in the biofilm [7, 9]: 5.54 ± 1.74^abc % | change in abundance of A. naeslundii relative to the control (in words) ([7]; twice daily treatment, day 19): significantly reduced | S. sanguinis as a percentage of total bacteria in the biofilm [8, 9]: 17.47 ± 3.44^a % | change in abundance of S. sanguinis relative to the control (in words) ([8]; twice daily treatment, day 19): significantly increased

Source: patent publication US11717536B2, “Treatment for periodontitis” (THE UNIVERSITY OF MELBOURNE, priority 2017, dated 2023)
